Assay results as given in patent US20230227477A1, “COMPOUNDS FOR SENSING REACTIVE OXYGEN SPECIES AND METHODS FOR USING THE SAME” (WAKE FOREST UNIVERSITY HEALTH SCIENCES, priority 2020, published 2023).

What was measured:
[1] = Selectivity screen of compound RAH2115 against oxidants, reductants, nucleophiles and salts (turn-on fluorescence); format: physicochemical; settings: RAH2115 10 μM
From the text: Given the longer excitation and emission profile of resorufin, it was hypothesized that compound RAH2115 would provide a better gauge of the overall selectivity and sensitivity of the scaffold towards H2O2 while confirming its potential applications within a biological setting. The high selectivity the scaffold towards H2O2 was confirmed by thoroughly screening compound RAH2115 against various oxidants, reductants, and nucleophiles in PBS buffer (pH 7.4) and measuring the resulting turn-on fluorescence after a 2 h incubation period (See FIG. 4, Graph A).
[…] Next, 1.080 mL of a freshly prepared 111.1 μM compound RAH2115 stock solution was added to 10.80 mL of 1× PBS buffer (pH 7.4) to give a total volume of 11.88 mL. 120 μL of analyte stock solution (PBS buffer alone, hydrogen peroxide, glutathione, glutathione disulfide, sodium nitrite, L-cysteine, L-lysine, L-serine, sodium chloride, sodium bromide, L-homocysteine, sodium sulfide, sodium sulfate, sodium thiosulfate and sodium hypochlorite) was then added to give a final volume of 12 mL, and each reaction was left to stir at 37° C.

[2] = Initial rates of fluorescence intensity of compound RAH2115 vs H2O2 concentration; detection limit; format: physicochemical; settings: Detection Limit=3σ/κ, slope from FIG. 4 Graph B
Procedure: The initial response rate of compound RAH2115 was also verified to be directly proportional to the concentration of H2O2. Specifically, immediately prior to use, 5 mM and 0.5 mM stock solutions of hydrogen peroxide were prepared in freshly degassed 1× PBS buffer (pH 7.4) using reagent grade H2O2 (30%). A 100 μM stock solution of compound RAH2115 was prepared in 200-proof ethanol. […] The plate was inserted into a 96-well plate reader (BioTek SYNERGY-HTX hybrid multi-mode reader, Winooski, Vt.) heated to 37° C., and agitated to ensure homogeneity. Fluorescence measurements were recorded and plotted as the change in initial rates of fluorescence intensity vs hydrogen peroxide concentration. This assay was repeated in triplicate and recorded as the mean+/−STDEV from three experiments.
This finding was deemed to be of great significance as the rate of payload release from the scaffold could then be tuned by varying the amount of H2O2. In addition, this finding also allowed for reaction-based fluorescent probes based off of this design (i.e., compound RAH2115) to be used to accurately quantify the amount of H2O2 in buffered solutions. Indeed, as depicted in FIG. 4, Graph B, when the initial rates of increasing fluorescence intensity of compound RAH2115 were plotted versus hydrogen peroxide concentration, excellent linearity between 0-1 mM was observed (R^2=0.99). […]

HeLa cells = assay: Imaging hydrogen peroxide in living HeLa cells with compound RAH2115 (confocal); format: cell-based, human; settings: ex: 561 nm, em: 587 nm
Procedure: HeLa (human cervical cancer) cells were grown and maintained appropriately according to the American Type Culture Collection (Manassas, Va.). Dulbecco's Modified Eagle Medium:F12-K (1:1) was supplemented with 10% fetal bovine serum (FBS), 1% penicillin-streptomycin, and 1% L-glutamine (ThermoFisher). Cells were incubated at 37° C. in a 5% CO2 atmosphere and split at 70-80% confluency every 2-3 days.
At 70-80% confluency, HeLa cells were seeded on two 35 mm glass-bottom round plates (MatTek Corporation, Ashland, Mass.) at a density of 200 k cells/mL. After adhering overnight, FBS-free media was aspirated and cells were washed with phosphate buffered saline (1×, pH 7.4). Cells in one dish were then incubated with 10 mM Paraquat (Methyl Viologen) for 4 h. Afterwards, both dishes were washed and incubated with compound RAH2115 (10 μM) for 1 hour. After a final PBS wash, both plates were rehydrated in phenol red-free media for imaging. Both control (absence of paraquat) and experimental (presence of paraquat) plates were imaged: ex: 561 nm, em: 587 nm. […]
An automated cell selection algorithm within the ImageJ software was used to quantify intracellular fluorescence. Cells from both control and experimental groups were subjected to Gaussian smoothing in order to accurately measure fluorescence within cells based on a minimum threshold against background. […]

In the case of `CC(C)(Cc1ccccc1B1OC(C)(C)C(C)(C)O1)C(=O)Oc1ccc2nc3ccc(=O)cc-3oc2c1` [compound RAH2115], the “increase in relative fluorescence intensity when co-incubated with H2O2” value ([1]; 1 mM H2O2, 2 h, vs PBS buffer alone) is reported as roughly 500 fold, the “increase in fluorescence intensity in the presence of other oxidants, reductants, nucleophiles and salts (in words)” value ([1]; 2 h, PBS pH 7.4, 37° C.) is reported as “negligible” and the “fluorescence (ex: 560 nm, em: 585 nm)” value ([1]; PBS pH 7.4, 37° C., 2 h, (1) PBS Buffer alone) is reported as 1.7+/−0.32. The “fluorescence (ex: 560 nm, em: 585 nm)” value ([1]; PBS pH 7.4, 37° C., 2 h, (2) 1 mM H2O2) was 812.25+/−89.32, the “fluorescence (ex: 560 nm, em: 585 nm)” value ([1]; PBS pH 7.4, 37° C., 2 h, (3) 1 mM glutathione) was 43.65+/−4.24 and the “fluorescence (ex: 560 nm, em: 585 nm)” value ([1]; PBS pH 7.4, 37° C., 2 h, (4) 1 mM glutathione disulfide) was 29.87+/−0.96. For the same molecule, the “fluorescence (ex: 560 nm, em: 585 nm)” value ([1]; PBS pH 7.4, 37° C., 2 h, (5) 1 mM NaNO2) was 47.10+/−11.06, the “fluorescence (ex: 560 nm, em: 585 nm)” value ([1]; PBS pH 7.4, 37° C., 2 h, (6) 1 mM L-cysteine) was 2.63+/−0.13 and the “fluorescence (ex: 560 nm, em: 585 nm)” value ([1]; PBS pH 7.4, 37° C., 2 h, (7) 1 mM L-lysine) was 3.31+/−0.61. The “fluorescence (ex: 560 nm, em: 585 nm)” value ([1]; PBS pH 7.4, 37° C., 2 h, (8) 1 mM L-serine) was 1.70+/−0.13, the “fluorescence (ex: 560 nm, em: 585 nm)” value ([1]; PBS pH 7.4, 37° C., 2 h, (9) 1 mM NaCl) was 40.71+/−1.33 and the “fluorescence (ex: 560 nm, em: 585 nm)” value ([1]; PBS pH 7.4, 37° C., 2 h, (10) 1 mM NaBr) was 39.56+/−0.02. The “fluorescence (ex: 560 nm, em: 585 nm)” value ([1]; PBS pH 7.4, 37° C., 2 h, (11) 1 mM L-homocysteine) was 74.32+/−5.27, the “fluorescence (ex: 560 nm, em: 585 nm)” value ([1]; PBS pH 7.4, 37° C., 2 h, (12) 100 mM Na2S) was 46.97+/−1.47 and the “fluorescence (ex: 560 nm, em: 585 nm)” value ([1]; PBS pH 7.4, 37° C., 2 h, (13) 1 mM sodium sulfate) was 38.01+/−2.86. For the same molecule, the “fluorescence (ex: 560 nm, em: 585 nm)” value ([1]; PBS pH 7.4, 37° C., 2 h, (14) 1 mM sodium thiosulfate) was 1.72+/−0.22, the “fluorescence (ex: 560 nm, em: 585 nm)” value ([1]; PBS pH 7.4, 37° C., 2 h, (15) 1 mM sodium hypochlorite) was 16.75+/−1.09 and the “detection limit for H2O2” value [2] was 1.5 µM. The “fluorescence in live HeLa cells pre-treated with paraquat (in words)” value (HeLa cells; 10 mM paraquat 4 h, then RAH2115 10 μM 1 hour) was “strong red fluorescence within cells” and the “fluorescence in live HeLa cells, absence of paraquat (in words)” value (HeLa cells; RAH2115 10 μM, 1 hour, control without paraquat) was “no fluorescent cells were observed”.
